US20230027066A1 (Urovant Sciences GmbH, priority 2019, published 2023)

Test system: men and women with overactive bladder
Assay: Phase 3 study of vibegron 75 mg vs placebo and tolterodine ER 4 mg, 12 weeks, efficacy (voiding and urine volume diary)
Type: in vivo, human
Settings: for First 50% Reduction in Urgency Episodes, Events / First 100% Reduction in UUI Episodes, Events: events of Events/Censored
Description: Enrollment of patients included individuals with OAB Wet (those with UUI, the involuntary loss of urine accompanied by urgency) and OAB Dry (those without UUI). A total of 1,518 patients were randomized across 215 study sites into one of three groups for a 12-week treatment period.
The study consisted of a Screening Period (1 to 5 weeks), a single-blind Run-in Period (2 weeks), a randomized double-blind Treatment Period (12 weeks), and a Follow-up Period (4 weeks).
Tolterodine ER 4 mg was the active control. […] Between the Baseline and Week 12 Visits, patients had study assessments at Week 4 and Week 8.
The Patient Voiding Diary was used by participants (via the eDiary or paper Diary) to record the frequency of daily OAB symptoms including all micturitions, urgency, incontinence, and main reason for incontinence by selecting the respective box for each symptom occurring during the course of a given day and night.
Urine volume data were collected separately by patients using the Urine Volume component of the eDiary, or the paper Urine Volume Chart. The Urine Volume Chart is a tool used in clinical practice and clinical investigation to assess voiding functions over a 24-hour period and is regarded as a useful instrument in the investigation of patients with voiding symptoms. Urine volume may be collected during any one (1) of the 7 Diary Days prior to the visit, and it should be recorded for ˜24 hours starting from the time the patient gets up for the day and continues until the time the patient gets up for the day on the next day.
For the purpose of this study, the number of micturitions was defined as the number of times a patient has voided in the toilet as indicated on the Patient Voiding Diary. Average daily micturitions were calculated using the daily entries in the Patient Voiding Diary, which was completed over the 7 days prior to each study visit. Average daily number of micturitions were calculated as the total number of micturitions that occurred on a Complete Diary Day divided by the number of Complete Diary Days in the Patient Voiding Diary. A complete diary day required confirmation by the patient in the Patient Voiding Diary that all voids and leakages had been recorded for the diary day. Baseline was defined as the average number of micturitions occurring during the last evaluable diary prior to the Baseline Visit.
The number of UUI episodes was defined as the number of times a patient had checked “urge” as the reason for accidental urine leakage. Average daily UUI episodes at each study visit were calculated in the same manner as described above for the micturition endpoint. The UUI endpoint were analyzed using only OAB Wet patients.
For the analysis of the co-primary endpoints (change from baseline in average number of daily micturitions at Week 12 and change from baseline in average number of daily urge urinary incontinence episodes at Week 12, and placebo adjustment of each), a mixed model for repeated measure (MMRM) with restricted maximum likelihood estimation was used. This model corrects for dropout and accounts for the fact that measurements taken on the same patient over time tend to be correlated by using all available information on patients within the same covariate set to derive an estimate of the treatment effect for a dropout-free population. The analysis model for each efficacy endpoint includes terms for treatment, visit, OAB Type (Wet vs Dry), Sex (Female vs Male), Region (US vs Rest of World), baseline score, and interaction of visit by treatment.
Primary inferences were drawn from treatment differences for the changes from baseline derived from the MMRM models at Week 12. As part of secondary objectives, the treatment differences for each post baseline visit were also derived using the same MMRM model. […]

[1] = Week 12, Age ≥ 75 years (posthoc analysis)
[2] = Week 12, No Prior ACH Use in last 12 Mo.
[3] = Week 12, No Prior B3 Agonist Use in last 12 Mo.
[4] = Week 12, Prior ACH Use in last 12 Mo.
[5] = Week 12, Prior B3 Agonist Use in last 12 Mo.

O=C(Nc1ccc(C[C@@H]2CC[C@H]([C@H](O)c3ccccc3)N2)cc1)[C@@H]1CCc2nccc(=O)n21 [Vibegron, (6S)-N-[4-[[(2S,5R)−5-[(R)-hydroxy(phenyl)methyl]pyrrolidin−2-yl]methyl]phenyl]−4-oxo−7,8-dihydro−6H-pyrrolo[1,2-a]pyrimidine−6-carboxamide]
Change from baseline in average volume voided per micturition, LS Mean (SE) (Week 8): 21.4 (3.20) mL
Estimated Incidence of Subjects with 50% Decrease from Baseline (urgency episodes) (Week 8): 31.8
Estimated Incidence of Subjects with 100% Decrease from Baseline (UUI episodes) (Week 8): 21.4
Total Incontinence, Active - Placebo LS Mean Difference (SE) (Week 8): −0.7 (0.15)
Urgency episodes, Active - Placebo LS Mean Difference (Week 8): −0.8
First 50% Reduction in Urgency Episodes, Events (Week 8): 166/360
First 100% Reduction in UUI Episodes, Events (Week 8): 86/317
Average Daily Number of Total Incontinence, Mean (SD) (Week 12): 1.89 (3.120)
Average daily number of urgency episodes, Mean (SD) (Week 12): 5.29 (4.500)
Average volume voided per micturition, Active - Placebo LS Mean Difference (Week 12): 21.2 mL
Average volume voided per micturition, Week 12 Mean (SD) (Week 12): 175.3 (81.78) mL
Change from Baseline in Average Daily Number of Total Incontinence, LS Mean (SE) (Week 12): −2.3 (0.15)
Change from baseline in average daily number of urgency episodes, LS Mean (Week 12): −2.7
Change from baseline in average volume voided per micturition, LS Mean (SE) (Week 12): 23.5 (3.26) mL
Estimated Incidence of Subjects with 50% Decrease from Baseline (urgency episodes) (Week 12): 43.8
Estimated Incidence of Subjects with 100% Decrease from Baseline (UUI episodes) (Week 12): 30.0
Total Incontinence, Active - Placebo LS Mean Difference (SE) (Week 12): −0.7 (0.16)
Urgency episodes, Active - Placebo LS Mean Difference (Week 12): −0.7
Micturitions: Week 12 CFB Mean (descriptive statistics) (Week 12, <65 yrs): −1.99
UUI: Week 12 CFB Mean (descriptive statistics) (Week 12, African American): −1.61
UUI: Week 12 CFB Median (Week 12, African American): −1.26
Micturitions: Week 12 CFB LS Mean (95% CI) (Week 12, Age < 65 years): −1.7
UUI: Week 12 CFB LS Mean (95% CI) (Week 12, Age < 65 years): −2.0
UUI: Week 12 CFB Mean (descriptive statistics) (Week 12, Age < 65 years): −2.08
Micturitions: Week 12 CFB LS Mean (95% CI) (Week 12, Age ≥ 65 years): −1.9
UUI: Week 12 CFB LS Mean (95% CI) (Week 12, Age ≥ 65 years): −2.0
UUI: Week 12 CFB Mean (descriptive statistics) (Week 12, Age ≥ 65 years): −1.94
Micturitions: Week 12 CFB LS Mean (95% CI) [1]: −2.1
UUI: Week 12 CFB LS Mean (95% CI) [1]: −2.0
UUI: Week 12 CFB Mean (descriptive statistics) (Week 12, Asian): −0.07
UUI: Week 12 CFB Median (Week 12, Asian): 0.00
Micturitions: Week 12 CFB LS Mean (95% CI) (Week 12, Females): −1.9
Micturitions: Week 12 CFB Mean (descriptive statistics) (Week 12, Females): −2.05
UUI: Week 12 CFB LS Mean (95% CI) (Week 12, Females): −2.1
UUI: Week 12 CFB Mean (descriptive statistics) (Week 12, Females): −2.10
Micturitions: Week 12 CFB LS Mean (95% CI) (Week 12, Males): −1.7
Micturitions: Week 12 CFB Mean (descriptive statistics) (Week 12, Males): −1.97
UUI: Week 12 CFB LS Mean (95% CI) (Week 12, Males): −1.6
UUI: Week 12 CFB Mean (descriptive statistics) (Week 12, Males): −1.35
Micturitions: Week 12 CFB Mean (descriptive statistics) (Week 12, Males with BPH): −1.50
UUI: Week 12 CFB Mean (descriptive statistics) (Week 12, Males with BPH): −1.09
Micturitions: Week 12 CFB Mean (descriptive statistics) (Week 12, Males without BPH): −2.26
UUI: Week 12 CFB Mean (descriptive statistics) (Week 12, Males without BPH): −1.51
Micturitions: Week 12 CFB Mean (descriptive statistics) [2]: −2.05
UUI: Week 12 CFB Mean (descriptive statistics) [2]: −2.12
Micturitions: Week 12 CFB Mean (descriptive statistics) [3]: −2.01
UUI: Week 12 CFB Mean (descriptive statistics) [3]: −2.03
Micturitions: Week 12 CFB LS Mean (95% CI) (Week 12, Non-White): −1.7
Micturitions: Week 12 CFB Mean (descriptive statistics) (Week 12, Non-White): −2.18
UUI: Week 12 CFB LS Mean (95% CI) (Week 12, Non-White): −1.3
UUI: Week 12 CFB Mean (descriptive statistics) (Week 12, Non-White): −1.14
UUI: Week 12 CFB Median (Week 12, Non-White): −1.00
Micturitions: Week 12 CFB LS Mean (95% CI) (Week 12, Overall): −1.8
Micturitions: Week 12 CFB Mean (descriptive statistics) (Week 12, Overall): −2.04
UUI: Week 12 CFB LS Mean (95% CI) (Week 12, Overall): −2.0
UUI: Week 12 CFB Mean (descriptive statistics) (Week 12, Overall): −2.01
Micturitions: Week 12 CFB Mean (descriptive statistics) [4]: −1.97
UUI: Week 12 CFB Mean (descriptive statistics) [4]: −1.46
Micturitions: Week 12 CFB Mean (descriptive statistics) [5]: −2.83
UUI: Week 12 CFB Mean (descriptive statistics) [5]: −1.64
Micturitions: Week 12 CFB LS Mean (95% CI) (Week 12, Region: Non-US): −1.8
Micturitions: Week 12 CFB Mean (descriptive statistics) (Week 12, Region: Non-US): −2.26
UUI: Week 12 CFB LS Mean (95% CI) (Week 12, Region: Non-US): −2.4
UUI: Week 12 CFB Mean (descriptive statistics) (Week 12, Region: Non-US): −2.60
Micturitions: Week 12 CFB LS Mean (95% CI) (Week 12, Region: US): −1.9
Micturitions: Week 12 CFB Mean (descriptive statistics) (Week 12, Region: US): −2.01
UUI: Week 12 CFB LS Mean (95% CI) (Week 12, Region: US): −1.9
UUI: Week 12 CFB Mean (descriptive statistics) (Week 12, Region: US): −1.92
Micturitions: Week 12 CFB LS Mean (95% CI) (Week 12, White): −1.8
Micturitions: Week 12 CFB Mean (descriptive statistics) (Week 12, White): −2.01
UUI: Week 12 CFB LS Mean (95% CI) (Week 12, White): −2.2
UUI: Week 12 CFB Mean (descriptive statistics) (Week 12, White): −2.23
UUI: Week 12 CFB Median (Week 12, White): −1.78
Micturitions, Week 12 LS Mean Change from Baseline (Placebo-Adjusted) (Week 12, co-primary endpoint): −0.5
UUI Episodes, Week 12 LS Mean Change from Baseline (Placebo-Adjusted) (Week 12, co-primary endpoint): −0.6
First 50% Reduction in Urgency Episodes, Events (Week 12): 225/301
First 100% Reduction in UUI Episodes, Events (Week 12): 119/284
Total Incontinence Episodes, Week 12 LS Mean Change from Baseline (Placebo-Adjusted) (Week 12, secondary endpoint): −0.7
Urgency Episodes, Week 12 LS Mean Change from Baseline (Placebo-Adjusted) (Week 12, secondary endpoint): −0.7
Micturitions, change at Week 12, mean (SD) (Week 12, subpopulation Age ≥65 years): −2.10 (2.83)
